Experimental data as given in patent US20080075730A1, “Methods and compositions for treating biofilms” (priority 2003, published 2008).
≈ marks a conversion by molar mass, not a printed value. Like-named read-outs stand apart in the source and are kept apart here.

Assays:
Assay type in all cases: cell-based
[1] = test system: Pseudomonas aeruginosa PA14 wild-type; assay: microbe, parasite or virus in culture; conditions: for MIC: Pseudomonas aeruginosa, read-out: MIC72 h
Protocol: (§1) Antimicrobial susceptibility testing. Antibiotic, metal and biocide susceptibility tests were performed. Antimicrobials were arranged into arrays in microtitre plates that typically consisted of serial two-fold dilutions along the rows of wells (the challenge plates). The first and last wells of every row were used as sterility and growth controls, respectively. […] Biofilms were rinsed with PBS (to remove loosely adherent planktonic cells) and inserted into the challenge plates. After exposure, biofilms were rinsed once in PBS and inserted into microtitre plates containing […] of recovery medium in each well (LB broth, 5 mM GSH, 5 mM L-cys, 1% v/v tween-20). These biofilms were disrupted into the recovery medium using a sonicator, and the recovered cells were serially diluted and plated for viable cell counting. Spot plates from these experiments were incubated for a minimum of 36 h at 35° C. before enumeration. Minimum inhibitory concentration (MIC) values were determined by reading the optical density at 650 nm (OD650) of challenge plates after 72 h at 35° C. using a THERMOmax microplate reader with SOFTMAX PRO data analysis software (Molecular Devices, Sunnyvale, Calif.).
(§2) For susceptibility testing, growth-curve data were used to calibrate incubation times to produce biofilms of similar cell density. […] In this model system, planktonic cells shed from the surface of biofilms served as the inoculum for MIC determinations.

[2] = test system: Pseudomonas aeruginosa PA14 SCV; assay: MIC determination, planktonic cells shed from biofilms (MBEC P&G device); conditions: for MIC: Pseudomonas aeruginosa, PA14, SCV, planktonic cells, OD650 after 72 h at 35° C., mean ± SD of four trials, read-out: MIC72 h
Protocol: as §1, §2

[3] = test system: Pseudomonas aeruginosa PA14 gacS^−; assay: as above; conditions: for MIC: Pseudomonas aeruginosa, PA14, gacS^−, planktonic cells, OD650 after 72 h at 35° C., mean ± SD of four trials, read-out: MIC72 h
Protocol: as §1, §2

[4] = test system: Pseudomonas aeruginosa PA14 wild-type biofilms
Excerpt: (§3) Biofilm formation. Biofilms were aerobically cultivated using the MBEC high-throughput (HTP) or Physiology and Genetics (P&G) device (Innovotech, Edmonton, Canada) as described in the manufacturer's instructions and by Ceri et al. (1999). To summarize, the parts of this batch culture apparatus were used in two ways. The top half of the plastic MBEC™-HTP device is a lid with 96 polystyrene pegs that also fits over a standard 96-well microtitre plate. For Biofilm growth, the bottom half was either (1) a corrugated trough that guided 22 mL of inoculum across the pegs when the device was placed on a rocker at 3.5 rocks per min (HTP format), or (2) a microtitre plate with […] of inoculum in each well that was placed on a gyrorotary shaker at 150 r.p.m. (P&G format). For either assay format, the inoculum was prepared to c. 10^7CFU/mL1 of the desired strain and the inoculated device was incubated at 35° C. and 95% relative humidity for the required time. Unless otherwise noted, all experiments utilized the MBEC P&G assay. Pegs from the devices were collected at specific time points for scanning electron microscopy and scanning confocal laser microscopy. Biofilm cell densities were evaluated by breaking pegs from the lid of the MBEC device with sterile pliers, rinsing the peg in PBS, and subsequent viable-cell counting as described above. PBS containing the […] surfactant Tween-20 (1% v/v) was used to assist in recovery of bacteria from the peg surfaces. Pegs were sonicated for 30 min in an Aquasonic model 250HT ultrasonic cleaner (VWR International, Mississauga, Canada). Samples of broth culture were collected at the same time points and viable cell counts were determined in a similar manner.
as §1, §2

[5] = test system: Pseudomonas aeruginosa PA14 SCV biofilms; assay: Biofilm susceptibility testing (viable cell counts, log-killing, MBEC99.9); conditions: for MBEC99.9: SCV biofilms, 2 h exposure, 3 log10 reduction in viable cells
Excerpt: as §3, §1, §2

[6] = test system: Pseudomonas aeruginosa PA14 gacS^− biofilms; assay: as above; conditions: for Log-survival / No. of survivors / SCV frequency: LB broth; for Log-survival / No. of survivors / SCV frequency / MBEC99.9: 2 h exposure; for MBEC99.9: gacS^− biofilms, 3 log10 reduction in viable cells
Excerpt: as §3, §1, §2

[7] = test system: Pseudomonas aeruginosa PA14 gacS^− biofilms; assay: Frequency of SCV cells arising from 24-h biofilms exposed for 18 h; conditions: in words
Protocol: In an alternative set of experiments, the frequency of SCV cells arising from 24-h biofilms of P. aeruginosa PA14 gacS was evaluated. Antibiotics were diluted from stock solutions into LB broth to obtain final concentrations of […]. These were arranged in triplicate in a micro-titre plate. Biofilms were incubated in these low concentrations of antibacterials for 18 h at 35° C. and 95% relative humidity. Goat and human serum were also assayed in this array, and were kind gifts from The Life and Environmental Sciences Animal Care Facility at the University of Calgary, Department of Biological Sciences. After exposure, biofilms were treated in a manner identical to that described above.
Frequency of phenotypic variation. During the course of susceptibility assays, the proportion of SCV cells recovered from biofilms after exposure to Ag^+ or H2O2 was increased relative to the corresponding growth controls. It was queried whether this may be true for other antimicrobial agents or growth conditions. An array of clinically used antibiotics, saline, and goat and human sera were examined for an ability to select for these SCVs from 24-h biofilms of P. aeruginosa PA14 gacS. Biofilms were exposed to these agents for 18 h and each assay was performed in triplicate. Viable cell counts were determined for each exposure condition, and log-survival was determined. The proportion of SCV cells in bacterial populations recovered from these exposure conditions was calculated as the mean of the proportions from each individual trial.

O=C(O)c1cn(C2CC2)c2cc(N3CCNCC3)c(F)cc2c1=O [Ciprofloxacin]
MIC ([1]; PA14, wild type, planktonic cells, OD650 after 72 h at 35° C., mean ± SD of four trials): 0.4 ± 0.2 µg/mL (≈ 1.21 µM)
differences in planktonic cell susceptibility between the different strains ([1]; wild type vs gacS^− vs SCV, log2 difference or less): no significant differences
MIC [2]: 0.8 ± 0.4 µg/mL (≈ 2.41 µM)
MIC [3]: 0.7 ± 0.3 µg/mL (≈ 2.11 µM)
MBEC99.9 ([4]; wild type biofilms, 2 h exposure, 3 log10 reduction in viable cells): 0.16 ± 0 µg/mL
MBEC99.9 [5]: 0.64 ± 0.45 µg/mL
tolerance of SCV strain biofilms relative to the wild-type strain ([5]; ratio of MBEC99.9 values, SCV vs wild type): approximately four
Log-survival ([6]; 0.16 μg mL^−1): −2.6 ± 0.8 log10 CFU peg^−1
No. of survivors ([6]; 0.16 μg mL^−1): 2.4 ± 0.8 log10 CFU peg^−1
SCV frequency ([6]; 0.16 μg mL^−1): 0%
MBEC99.9 [6]: 0.12 ± 0.05 µg/mL
selection for SCVs / increase of the frequency of SCV cells compared with growth controls [7]: in no instances

OO [H2O2, hydrogen peroxide]
MIC ([1]; PA14, 72 h): 938 µg/mL (≈ 27600 µM)
MIC [2]: 1880 µg/mL (≈ 55100 µM)
planktonic cell susceptibility ([2]; planktonic PA14 SCV, by comparison, in words): highly resistant
MIC [3]: 45 ± 16 µg/mL (≈ 1320 µM)
planktonic cell susceptibility ([3]; planktonic PA14 gacS, in words): hypersensitive
MBEC99.9 [4]: 352 ± 135 ppm
MBEC99.9 [5]: 293 ± 203 ppm
biofilm survival at subMBEC99.9 concentrations relative to the wild-type strain ([5]; in words): increased survival
Log-survival ([6]; 30 μg mL^−1): −3.8 ± 1.1 log10 CFU peg^−1
No. of survivors ([6]; 30 μg mL^−1): 1.2 ± 1.1 log10 CFU peg^−1
SCV frequency ([6]; 30 μg mL^−1): 8%
MBEC99.9 [6]: 22 ± 14 ppm
proportion of SCV cells recovered from biofilms after exposure, relative to growth controls ([6]; susceptibility assays, in words): increased
